Experimental findings from patent US9018630B2, “Heterocyclic dinaphtho thieno thiophene (DNTT) compounds for use as organic semiconductor thin films in field effect transistors and related methods” (Nippon Kayaku Kabushiki Kaisha, priority 2011, dated 2015) are described below.

Structures are written as SMILES. Converted amounts (≈) assume the structure as drawn. Bounds are passed on as bounds.

Series [1] can be described thus: Solvent solubility, qualitative statements. It is filed as physicochemical. The source says:
(§1) From FIG. 4 wherein the solubility of the DNTT was 1, the solubility ratio of the DNTT having a short alkyl chain Ref-02 was 0.1 and the solubility ratio of the DNTT having a short alkyl chain Ref-03 was 0.5. […] It was also found out that considering the solution process, the compound having an alkyl substituent at 3,10-positions has more excellent properties. Namely, use of such high solubility enables production of a field effect transistor by creating a practical ink for creating a semiconductor device or applying the ink created.

Series [2] can be described thus: Absorption spectrums of saturated chloroform solutions, solubility ratio (Example 52, FIG. 4). It is filed as physicochemical. Particulars: for relative intensity of the longest absorption wavelength / Solubility ratio Chloroform: saturated chloroform solutions; for relative intensity of the longest absorption wavelength: 2,9-C10-DNTT = 1; for Solubility ratio Chloroform: compound (2)-64 = 1; for solubility ratio: from FIG. 4, solubility of the DNTT = 1.
Excerpt: (§2) Absorption spectrums of saturated solutions obtained by dissolving the DNTT having a C10 alkyl group at 2,9-positions (compound (2)-64), the DNTT having a C10 alkyl group at 3,10-positions (compound (1)-12), and the like in chloroform are shown in FIG. 4. In the case of the DNTT having a C10 long-chain alkyl group, from the results, the relative intensity of the longest absorption wavelength according to the substitution position was 3.9 in 3,10-C10-DNTT (compound (1)-12) wherein the relative intensity was 1 in 2,9-C10-DNTT (compound (2)-64). […] It was clearly found out that the solubility of 3,10-C10-DNTT (compound (1)-12) was also high in a heating state (Table 10).
as §1

Series [3] can be described thus: Solubility at 60° C. in toluene (Example 52). Format: physicochemical.
Excerpt: as §2

The nature of series [4]: Heat resistance test of TC type field effect transistors (Example 51). Particulars: heat resistance test of the transistor. How it is done: Using the compound (1)-22 synthesized in Example 39 and the compound (2)-64 synthesized in Synthesis Example 14, TC type field effect transistors were created by the same operation as that in Example 49 except that a substrate treated with HMDS-SAM was used, the substrate temperature during deposition was 100° C., L=40 μm, and W=1500 μm. The obtained field effect transistors were subjected to a heat resistance test. Comparing the initial properties (μ=1.66 cm^2/Vs, Vth=−14 V, Ion/off˜10^9), the mobility was approximately 1.6 cm^2/Vs even after annealing at 100° C. and 150° C., and the values of these properties were kept approximately equal to the initial values thereof. The properties were improved, for example, Vth was shifted to a low potential side.

As a reminder, the melting point is the temperature of the solid-liquid transition. As a reminder, the solubility is the dissolved amount per volume that the medium holds. On to `CCCCCCCCCCc1ccc2cc3sc4c5cc6cc(CCCCCCCCCC)ccc6cc5sc4c3cc2c1` [(1)-12, 3,10-didecyl dinaphtho[2,3-b:2′,3′-f]thieno[2,3-b]thiophene], for which the melting point lay in the range of 187 to 188 °C. Also, the solvent solubility result in series [1] is listed as “higher solvent solubility than that of the compound (2)-64”. Also, in series [2], the “relative intensity of the longest absorption wavelength” value came out at 3.9 and the “Solubility ratio Chloroform” value came out at 3.8. In addition, the solubility in series [3] (organic solvent or mixture, 60° C., toluene) was greater than 0.26 mg/mL.

`c1ccc(-c2ccc3cc4sc5c6cc7cc(-c8ccccc8)ccc7cc6sc5c4cc3c2)cc1` [(1)-22, 3,10-diphenyl dinaphtho[2,3-b:2′,3′-f]thieno[3,2-b]thiophene] came in with a melting point greater than 300 °C. For the same compound, the thermal stability entry in series [4] is on record as “high thermal stability”.

On to `CCCCCCCCCCc1ccc2cc3sc4c5cc6cc(CCCCCCCCCC)ccc6cc5sc4c3cc2c1` [(2)-64, 2,9-didecyldinaphtho[2,3-b:2′,3′-f]thieno[2,3-b]thiophene], for which, in series [2], the “relative intensity of the longest absorption wavelength” value is on record as 1 and the “Solubility ratio Chloroform” value was found to be 1. Besides, in series [3], the “Solubility 60° C. toluene” value is 0.045 mg/mL (≈ 72.5 µM).

As for `c1ccc2cc3c(cc2c1)sc1c2cc4ccccc4cc2sc31` [Ref-01, Dinaphtho[2,3-b:2′,3′-f]thieno[3,2-b]thiophene], the solvent solubility entry in series [1] was “does not dissolve in most of solvents”. Moreover, the solubility ratio in series [2] came to 1.

In the case of `Cc1ccc2cc3sc4c5cc6cc(C)ccc6cc5sc4c3cc2c1` [Ref-02], the solvent solubility result in series [1] is listed as “do not dissolve in most of solvents”. In addition, in series [2], the solubility ratio is 0.1.

As for `Cc1ccc2cc3c(cc2c1)sc1c2cc4ccc(C)cc4cc2sc31` [Ref-03], in series [1], the solvent solubility result is “do not dissolve in most of solvents”. Further, the solubility ratio in series [2] amounted to 0.5.
